Blank lines part the entries; values can stand above or below the compound they belong to.
Biological target: T1, Recombinant human LTC4 synthase (Homo sapiens, UniProt Q16873)
T1 construct: made in house; host or cells: Pichia pastoris ('Piccia pastoralis' [sic])
T1 sequence (Q16873 1-150): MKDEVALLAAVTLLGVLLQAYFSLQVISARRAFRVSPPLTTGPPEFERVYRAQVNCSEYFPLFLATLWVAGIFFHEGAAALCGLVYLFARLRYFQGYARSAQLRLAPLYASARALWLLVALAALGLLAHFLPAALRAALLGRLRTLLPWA
Assay: In vitro LTC4 synthase assay (LTA4 to LTC4, HTRF detection)
Format: biochemical
Protocol: In the assay, LTC4 synthase catalyses the reaction where the substrate LTA4 is converted to LTC4. Recombinant human LTC4 synthase is expressed in Piccia pastoralis and the purified enzyme is dissolved in 25 mM tris-buffer pH 7.8 supplemented with 0.1 mM glutathione (GSH) and stored at −80° C. The assay is performed in phosphate buffered saline (PBS) pH 7.4 and 5 mM GSH in 384-well plates.
The following is added chronologically to each well:
1. 48 μL LTC4 synthase in PBS with 5 mM GSH. The total protein concentration in this solution is 0.5 μg/mL. 2. 1 μL inhibitor in DMSO (final concentration 10 μM). 3. Incubation of the plate at room temperature for 10 min. 4. 1 μL LTA4 (final concentration 2.5 μM). 5. Incubation of the plate at room temperature for 5 min. 6. 10 μL of the incubation mixture is analysed using homogenous time resolved fluorescent (HTRF) detection.

Compound: CN(c1ccc(Cl)cc1)c1ccc(C(=O)c2cc(C(=O)O)cc(N(CCCCO)c3ccccn3)c2)nc1 [9:40, 3-{5-[(4-Chlorophenyl)(methyl)amino]picolinoyl}-5-[(4-hydroxybutyl)(2-pyridyl)-amino]benzoic acid]
IC50: 362 nM

Compound: CCCCCCNC(=O)c1cc(C(=O)O)cc(C(=O)c2ccc(N(C)c3ccc(Cl)cc3)cn2)c1 [2:5, 3-{5-[(4-Chlorophenyl)(methyl)amino]picolinoyl}-5-(hexylcarbamoyl)benzoic acid]
IC50: 102 nM

Compound: CN(c1ccc(Cl)cc1)c1ccc(C(=O)c2cc(C(=O)O)cc(C(=O)Nc3ccccc3Cl)c2)nc1 [2:2, 3-{5-[(4-Chlorophenyl)(methyl)amino]picolinoyl}-5-(2-chlorophenyl-carbamoyl)-benzoic acid]
IC50: 538 nM

Compound: CN(c1ccc(Cl)cc1)c1ccc(C(=O)c2cc(Nc3ccccc3OC(F)(F)F)cc(C(=O)O)c2)cc1 [10:4, 3-{4-[(4-Chlorophenyl)(methyl)amino]benzoyl}-5-(2-(trifluoromethoxy)-phenylamino)benzoic acid]
IC50: 206 nM

Compound: CN(c1ccc(Cl)cc1)c1ccc(C(=O)c2cc(OCc3cccc(F)c3)cc(C(=O)O)c2)nc1 [11:4, 3-{5-[(4-Chlorophenyl)(methyl)amino]picolinoyl}-5-(3-fluorobenzyloxy)benzoic acid]
IC50: 454 nM

Compound: CN(c1ccc(Cl)cc1)c1ccc(C(=O)c2cc(NC(=O)c3cccc(Cl)c3)cc(C(=O)O)c2)nc1 [2:9, 3-(3-Chlorobenzamido)-5-{5-[(4-chlorophenyl)(methyl)amino]picolinoyl}benzoic acid]
IC50: 276 nM

Compound: CN(c1ccc(Cl)cc1)c1ccc(C(=O)c2cc(C(=O)O)cc(N(CC3CCCO3)c3ccccc3)c2)nc1 (stereo not drawn) [9:41, 3-{5-[(4-Chlorophenyl)(methyl)amino]picolinoyl}-5-{phenyl[(2-tetrahydrofuryl)-methyl]amino}benzoic acid]
IC50: 164 nM

Compound: CN(c1ccc(Cl)cc1)c1ccc(C(=O)c2cc(C(=O)O)cc(C(=O)Nc3cccc(Cl)c3)c2)nc1 [2:4, 3-{5-[(4-Chlorophenyl)(methyl)amino]picolinoyl}-5-(3-chlorophenyl-carbamoyl)-benzoic acid]
IC50: 390 nM

Compound: CN(c1ccc(Cl)cc1)c1ccc(C(=O)c2cc(NC(=O)c3cccc(C(F)(F)F)c3)cc(C(=O)O)c2)nc1 [Example 2:7, 3-{5-[(4-Chlorophenyl)(methyl)amino]picolinoyl}-5-[3-(trifluoromethyl)benzamido]-benzoic acid]
IC50: 549 nM

Compound: CN(c1ccc(Cl)cc1)c1ccc(C(=O)c2cc(C(=O)O)cc(N3CCOCC3)c2)nc1 [9:36, 3-{5-[(4-Chlorophenyl)(methyl)amino]picolinoyl}-5-(4-morpholinyl)benzoic acid]
IC50: 1000 nM

Compound: CN(c1ccc(Cl)cc1)c1ccc(C(=O)c2cc(Nc3ccc4c(c3)OCO4)cc(C(=O)O)c2)nc1 [9:29, 3-{5-[(4-Chlorophenyl)(methyl)amino]picolinoyl}-5-(3,4-methylenedioxy-phenylamino)benzoic acid]
IC50: 420 nM

Compound: CN(c1ccc(Cl)cc1)c1ccc(C(=O)c2cc(Oc3ccccc3)cc(C(=O)O)c2)nc1 [Example 8:1, 3-{5-[(4-Chlorophenyl)(methyl)aminol]picolinoyl}-5-phenoxybenzoic acid]
IC50: 67 nM

Compound: CN(c1ccc(Cl)cc1)c1ccc(C(=O)c2cc(C(=O)O)cc(N(C)C3CCOCC3)c2)cc1 [10:22, 3-{4-[(4-Chlorophenyl)(methyl)amino]benzoyl}-5-[methyl(4-tetrahydropyranyl)-amino]benzoic acid]
IC50: 252 nM

Compound: CN(c1ccc(Cl)cc1)c1ccc(C(=O)c2cc(C(=O)O)cc(N(C(=O)CC3CCCC3)c3ccccc3)c2)cc1 [10:39, 3-{4-[(4-Chlorophenyl)(methyl)amino]benzoyl}-5-[2-cyclopentyl-(N-phenyl)-acetamido]benzoic acid]
IC50: 192 nM

Compound: CN(Cc1cccc(Cl)c1)c1cc(C(=O)O)cc(C(=O)c2ccc(N(C)c3ccc(Cl)cc3)cn2)c1 [9:10, 3-[(3-Chlorobenzyl)(methyl)amino]-5-{5-[(4-chlorophenyl)(methyl)amino]-picolinoyl}benzoic acid]
IC50: 75 nM

More lines, in order of falling IC50, values ahead:

IC50: 807 nM
Compound: CN(c1ccc(Cl)cc1)c1ccc(C(=O)c2cc(C(=O)O)cc(N(C(=O)C3CCOCC3)c3ccccc3)c2)cc1 [10:34, 3-{4-[(4-Chlorophenyl)(methyl)amino]benzoyl}-5-[(N-phenyl)-4-tetrahydro-pyrancarboxamido]benzoic acid]

IC50: 470 nM
Compound: CN(c1ccc(Cl)cc1)c1ccc(C(=O)c2cc(C(=O)O)cc(N(C(=O)CO)c3ccccc3)c2)nc1 [9:38, 3-{5-[(4-Chlorophenyl)(methyl)amino]picolinoyl}-5-(2-hydroxy-N-phenylacet-amido)benzoic acid]

IC50: 412 nM
Compound: COc1cccc(C(=O)Nc2cc(C(=O)O)cc(C(=O)c3ccc(N(C)c4ccc(Cl)cc4)cn3)c2)c1 [2:10, 3-{5-[(4-Chlorophenyl)(methyl)amino]picolinoyl}-5-(3-methoxybenzamido)-benzoic acid]

IC50: 273 nM
Compound: COc1cccc(Nc2cc(C(=O)O)cc(C(=O)c3ccc(N(C)c4ccc(Cl)cc4)cc3)c2)c1 [Example 10:3, 3-{4-[(4-Chlorophenyl)(methyl)amino]benzoyl}-5-(3-methoxyphenylamino)-benzoic acid]

IC50: 216 nM
Compound: CN(c1ccc(Cl)cc1)c1ccc(C(=O)c2cc(C(=O)O)cc(N(C)c3ccc4c(c3)OCCO4)c2)nc1 [9:34, 3-{5-[(4-Chlorophenyl)(methyl)amino]picolinoyl}-5-[(3,4-ethylenedioxy-phenyl)(methyl)amino]benzoic acid]

IC50: 183 nM
Compound: CCN(CC)c1ccc(Oc2cc(C(=O)O)cc(C(=O)c3ccc(N(C)c4ccc(Cl)cc4)cc3)c2)cc1 [8:15, 3-{4-[(4-Chlorophenyl)(methyl)amino]benzoyl}-5-(4-(diethylamino)phenoxy)-benzoic acid]

IC50: 143 nM
Compound: CN(c1ccc(Cl)cc1)c1ccc(C(=O)c2cc(NC3CCSCC3)cc(C(=O)O)c2)cc1 [10:21]

IC50: 125 nM
Compound: CN(c1ccc(Cl)cc1)c1ccc(C(=O)c2cc(Nc3ccc(C(F)(F)F)cc3Cl)cc(C(=O)O)c2)cc1 [10:11, 3-[2-Chloro-4-(trifluoromethyl)phenylamino]-5-{4-[(4-chlorophenyl)(methyl)-amino]benzoyl}benzoic acid]

IC50: 122 nM
Compound: CN(c1ccc(Cl)cc1)c1ccc(C(=O)c2cc(C(=O)O)cc(N(CCC3OCCO3)c3ccccc3)c2)nc1 [9:46, 3-{[2-(1,3-Dioxolan-2-yl)ethyl](phenyl)amino}-5-{5-[(4-chlorophenyl)(methyl)-amino]picolinoyl}benzoic acid]

IC50: 109 nM
Compound: CN(c1ccc(Cl)cc1)c1ccc(C(=O)c2cc(Oc3ccc4c(c3)OCO4)cc(C(=O)O)c2)cc1 [8:12, 5-{4-[(4-Chlorophenyl)(methyl)amino]benzoyl}-3-(3,4-methylenedioxyphenoxy)-benzoic acid]

IC50: 40 nM
Compound: CN(c1ccc(Cl)cc1)c1ccc(C(=O)c2cc(C(=O)O)cc(N(C)c3ccc(Cl)cc3Cl)c2)cc1 [10:13, 3-{4-[(4-Chlorophenyl)(methyl)amino]benzoyl}-5-[(2,4-dichlorophenyl)-(methyl)amino]benzoic acid]

IC50: 40 nM
Compound: CN(c1ccc(Cl)cc1)c1ccc(C(=O)c2cc(C(=O)O)cc(N(CC3OCCO3)c3ccccc3)c2)cc1 [10:29, 3-{[(1,3-Dioxolan-2-yl)methyl](phenyl)amino}-5-{4-[(4-chlorophenyl)(methyl)-amino]benzoyl}benzoic acid]
